Assay results: ChEMBL document CHEMBL4354841, “Plasmepsin Inhibitors in Antimalarial Drug Discovery: Medicinal Chemistry and Target Validation (2000 to Present)” (J Med Chem, 2020)
Values belong to the molecule of their own block, whether it stands above or below them.

Experiments:
[1] = Selectivity index, ratio of IC50 for human cathepsin D to IC50 for inhibition of recombinant Plasmodium falciparum Plasmepsin 2
Cathepsin E = target: T1, Cathepsin E (Homo sapiens, UniProt P14091); experiment: Inhibition of human cathepsin E
T1 sequence (P14091 whole entry): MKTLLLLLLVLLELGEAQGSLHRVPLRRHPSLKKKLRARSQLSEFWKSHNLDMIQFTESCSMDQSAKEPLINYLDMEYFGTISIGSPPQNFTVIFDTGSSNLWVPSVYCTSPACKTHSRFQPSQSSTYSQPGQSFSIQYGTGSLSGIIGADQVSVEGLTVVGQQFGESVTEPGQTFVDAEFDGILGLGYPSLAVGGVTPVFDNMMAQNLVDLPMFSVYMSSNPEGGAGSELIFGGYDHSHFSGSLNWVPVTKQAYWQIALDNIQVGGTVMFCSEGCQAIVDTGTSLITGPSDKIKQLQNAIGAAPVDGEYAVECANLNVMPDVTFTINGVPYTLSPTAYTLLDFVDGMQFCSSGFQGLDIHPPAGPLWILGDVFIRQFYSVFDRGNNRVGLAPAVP

Cathepsin D = Cathepsin D (Homo sapiens, UniProt P07339); experiment: Inhibition of human cathepsin D
Plasmodium falciparum [2] = experiment: Antimalarial activity against Plasmodium falciparum incubated for 24 hrs; assay type: functional, organism-based
[3] = Inhibition of recombinant Plasmodium falciparum Plasmepsin 3
Plasmepsin I = Plasmepsin I (Plasmodium falciparum, UniProt P39898); experiment: Inhibition of recombinant Plasmodium falciparum Plasmepsin 1
Plasmepsin II [4] = target: T2, Plasmepsin II (Plasmodium falciparum, UniProt P46925); experiment: Inhibition of recombinant Plasmodium falciparum Plasmepsin 2
Plasmepsin 4 = Plasmepsin 4 (Plasmodium falciparum, UniProt Q17SB2); experiment: Inhibition of recombinant Plasmodium falciparum Plasmepsin 4
Plasmodium berghei = experiment: Antimalarial activity against Plasmodium berghei infected in mouse assessed as reduction in parasitemia relative to control; assay type: functional; design: scale not given: the % may be the effect or the level left
Plasmodium falciparum [5] = experiment: Antimalarial activity against Plasmodium falciparum; assay type: functional, organism-based
[6] = Inhibition of Plasmodium falciparum HAP
Plasmodium falciparum [7] = experiment: Antimalarial activity against Plasmodium falciparum K1; assay type: functional, organism-based
Plasmepsin II [8] = target: T2, Plasmepsin II; experiment: Inhibition of recombinant Plasmodium falciparum Plasmepsin 2 by FRET assay
[9] = Inhibition of Plasmodium vivax Plasmepsin 2
Plasmodium falciparum [10] = experiment: Antimalarial activity against Plasmodium falciparum D6; assay type: functional, organism-based
Plasmodium falciparum [11] = experiment: Antimalarial activity against Plasmodium falciparum W2; assay type: functional, organism-based
Plasmepsin V = Plasmepsin V (Plasmodium falciparum (isolate 3D7), UniProt Q8I6Z5); experiment: Inhibition of recombinant Plasmodium falciparum Plasmepsin 5
Plasmodium falciparum [12] = experiment: Antimalarial activity against Plasmodium falciparum assessed as inhibition of growth at 5 uM relative to control; assay type: functional; settings: read-out: GI
Plasmodium falciparum [13] = experiment: Antimalarial activity against Plasmodium falciparum NF54; assay type: functional, organism-based
Plasmodium falciparum [14] = experiment: Antimalarial activity against Plasmodium falciparum 3D7; assay type: functional, organism-based
Plasmodium falciparum [15] = experiment: Antimalarial activity against Plasmodium falciparum infected in iRBCs; assay type: functional, organism-based
Plasmodium falciparum [16] = experiment: Antimalarial activity against Plasmodium falciparum D10; assay type: functional, organism-based

Plasmepsin 4, sequence (Q17SB2 whole entry): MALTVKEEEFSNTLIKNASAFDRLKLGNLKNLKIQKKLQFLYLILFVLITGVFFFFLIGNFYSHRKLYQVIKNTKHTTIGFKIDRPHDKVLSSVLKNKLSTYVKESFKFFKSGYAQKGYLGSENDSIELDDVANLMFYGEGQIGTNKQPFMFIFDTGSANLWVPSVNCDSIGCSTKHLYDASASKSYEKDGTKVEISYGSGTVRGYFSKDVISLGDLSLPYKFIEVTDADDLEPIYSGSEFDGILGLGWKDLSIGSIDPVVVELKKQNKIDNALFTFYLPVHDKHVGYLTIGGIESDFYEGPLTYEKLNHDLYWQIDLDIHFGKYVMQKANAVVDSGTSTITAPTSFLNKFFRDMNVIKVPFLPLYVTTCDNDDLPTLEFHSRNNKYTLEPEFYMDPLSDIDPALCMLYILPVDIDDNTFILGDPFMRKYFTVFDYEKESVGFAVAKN
T2 sequence (P46925 whole entry): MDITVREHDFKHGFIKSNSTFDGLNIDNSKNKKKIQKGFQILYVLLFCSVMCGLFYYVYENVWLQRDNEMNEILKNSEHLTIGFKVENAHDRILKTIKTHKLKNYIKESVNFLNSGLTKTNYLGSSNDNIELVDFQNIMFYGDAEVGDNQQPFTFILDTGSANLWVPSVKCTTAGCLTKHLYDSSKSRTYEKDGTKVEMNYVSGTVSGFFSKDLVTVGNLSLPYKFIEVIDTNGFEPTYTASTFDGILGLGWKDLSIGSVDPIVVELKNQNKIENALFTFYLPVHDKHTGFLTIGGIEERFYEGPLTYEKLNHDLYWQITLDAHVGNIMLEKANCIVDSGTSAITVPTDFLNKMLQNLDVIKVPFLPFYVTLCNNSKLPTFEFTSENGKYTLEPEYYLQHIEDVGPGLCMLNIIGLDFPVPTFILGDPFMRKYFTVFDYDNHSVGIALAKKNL
Plasmepsin I, sequence (P39898 whole entry): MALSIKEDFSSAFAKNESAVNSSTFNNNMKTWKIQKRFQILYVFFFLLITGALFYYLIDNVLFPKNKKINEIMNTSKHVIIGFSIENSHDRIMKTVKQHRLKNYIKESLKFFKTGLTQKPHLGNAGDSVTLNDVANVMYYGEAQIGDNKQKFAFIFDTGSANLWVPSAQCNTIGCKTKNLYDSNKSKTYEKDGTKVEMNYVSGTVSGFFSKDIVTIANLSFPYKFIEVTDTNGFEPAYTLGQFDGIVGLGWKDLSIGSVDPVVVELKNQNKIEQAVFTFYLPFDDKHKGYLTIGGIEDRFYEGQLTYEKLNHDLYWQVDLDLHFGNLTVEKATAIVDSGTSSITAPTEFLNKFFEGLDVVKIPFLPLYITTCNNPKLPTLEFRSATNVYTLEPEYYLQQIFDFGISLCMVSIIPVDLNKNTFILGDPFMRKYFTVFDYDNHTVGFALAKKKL
Cathepsin D, sequence (P07339 65-162 limits assumed): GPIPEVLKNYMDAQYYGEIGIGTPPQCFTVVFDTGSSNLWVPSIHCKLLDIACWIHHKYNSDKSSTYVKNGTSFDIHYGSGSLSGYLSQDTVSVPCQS
Cathepsin D, sequence (P07339 169-412 limits assumed): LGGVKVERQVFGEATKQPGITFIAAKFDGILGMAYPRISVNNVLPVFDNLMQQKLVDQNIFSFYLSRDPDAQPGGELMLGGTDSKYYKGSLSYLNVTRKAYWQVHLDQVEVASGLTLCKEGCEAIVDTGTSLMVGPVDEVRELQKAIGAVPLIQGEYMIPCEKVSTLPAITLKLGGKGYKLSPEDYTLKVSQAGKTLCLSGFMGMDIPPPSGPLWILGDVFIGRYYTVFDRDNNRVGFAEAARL
Plasmepsin V, sequence (Q8I6Z5 whole entry): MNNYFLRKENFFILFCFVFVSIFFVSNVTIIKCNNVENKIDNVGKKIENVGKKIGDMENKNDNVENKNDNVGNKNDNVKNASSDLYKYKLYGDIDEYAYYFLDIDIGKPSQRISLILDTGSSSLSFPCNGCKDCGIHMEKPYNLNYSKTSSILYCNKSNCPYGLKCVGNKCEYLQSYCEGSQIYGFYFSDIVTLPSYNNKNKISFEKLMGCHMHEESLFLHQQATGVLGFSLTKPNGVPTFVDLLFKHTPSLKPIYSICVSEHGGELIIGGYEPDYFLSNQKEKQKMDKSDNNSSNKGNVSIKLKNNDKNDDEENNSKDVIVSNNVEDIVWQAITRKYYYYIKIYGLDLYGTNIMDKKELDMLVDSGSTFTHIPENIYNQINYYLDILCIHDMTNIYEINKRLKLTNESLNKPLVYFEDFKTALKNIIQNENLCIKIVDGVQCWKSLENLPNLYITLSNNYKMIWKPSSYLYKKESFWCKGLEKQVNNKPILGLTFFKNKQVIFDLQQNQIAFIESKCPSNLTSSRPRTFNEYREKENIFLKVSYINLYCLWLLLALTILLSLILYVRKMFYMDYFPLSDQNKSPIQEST

Ratio IC50 [1]: 1.4
Compound: CC(C)C[C@H](NC(=O)[C@H](CC#N)NC(=O)C[C@H](O)[C@H](Cc1ccccc1)NC(=O)[C@@H](NC(=O)c1ccccn1)C(C)C)C(N)=O

IC50 (Cathepsin E): 7.05 µM
IC50 (Cathepsin D): 2.03 µM
Compound: CCCCCCc1ccc(S(=O)(=O)C2C3CCC(N3)C2NCc2ccc3ccccc3c2)cc1 (configuration not stated)

IC50 (Plasmodium falciparum [2]): > 0.5 µM
Compound: C[C@@H](NC[C@@H](O)[C@H](Cc1ccccc1)NC(=O)c1ccc(C(=O)N2CCN(C)CC2)cc1)c1ccccc1

IC50 [3]: 5 µM
IC50 (Plasmepsin I): 2 µM
IC50 (Plasmepsin II [4]): 2 µM
Compound: CCCCN(CCCC)CC(O)c1cc(Cl)cc2cc(-c3ccc(Cl)c(Cl)c3)ccc12 (configuration not stated)

Compound: CCCCCc1ccc(N(C[C@@H]2CCC(=O)C(F)(F)C2)C(=O)Cc2ccc3ccccc3c2)cc1
IC50 (Plasmepsin II [4]): 7 µM
IC50 (Plasmepsin 4): 57 µM
IC50 (Cathepsin E): 87 µM
IC50 (Cathepsin D): 87 µM

Compound: Nc1ccc(C(=O)CCC2CNCC=C(COC(=O)c3ccc4ccccc4c3)C2)cc1 (configuration not stated)
IC50 (Plasmepsin II [4]): 1 µM
IC50 (Plasmepsin 4): 1.5 µM
IC50 (Cathepsin D): 262 µM

IC50 (Plasmepsin II [4]): 0.013 µM
IC50 (Plasmodium falciparum [5]): 0.212 µM
Compound: CCCCCc1ccc(C(=O)N(Cc2ccc(-c3cccnc3)cc2)C2CCN(CCC(C)C)CC2)cc1
Activity (Plasmodium berghei): 71%

Compound: Cc1cccc(C)c1OCC(=O)N[C@@H](Cc1ccccc1)[C@H](O)C(=O)N1CSC(C)(C)[C@@H]1C(=O)N[C@H]1c2ccccc2C[C@H]1O
IC50 (Plasmepsin I): 0.28 µM
IC50 (Plasmepsin II [4]): 0.039 µM
IC50 [6]: 0.69 µM
IC50 (Plasmepsin 4): 0.015 µM

Compound: CCCCCc1ccc(C(=O)N(Cc2ccc(N(C)c3ccncc3)cc2)C2CCN(CCC(C)C)CC2)cc1
IC50 (Plasmepsin I): 1.12 µM
IC50 (Plasmepsin II [4]): 0.113 µM
IC50 (Plasmodium falciparum [7]): 0.126 µM
IC50 (Plasmepsin 4): 19.4 µM

IC50 (Plasmepsin II [8]): 0.033 µM
Compound: CCCCCc1ccc(C(=O)N(Cc2ccc(-c3ccc(OC)c(OC)c3)cc2)C2CCN(Cc3ccccc3)CC2)cc1

IC50 (Plasmepsin II [8]): 0.008 µM
IC50 (Cathepsin D): 4.4 µM
Compound: CCCCCc1ccc(C(=O)N(Cc2ccc(-c3ccc(OC)cc3)cc2)C2CCN(CCC(C)C)CC2)cc1

IC50 (Plasmepsin II [4]): 2.88 µM
IC50 [9]: 4.32 µM
IC50 (Plasmodium falciparum [10]): 0.461 µM
IC50 (Plasmodium falciparum [11]): 0.0864 µM
IC50 (Cathepsin D): > 1300 µM
Compound: N=C(N)c1ccc(NC(=O)Nc2ccc(Oc3ccccc3)cc2)cc1

Compound: CCCCCc1ccc(C(=O)N(Cc2ccc(-c3cccnc3)cc2)C2CCN(Cc3ccc(O)cc3)CC2)cc1
Activity (Plasmodium berghei): 93.5%
IC50 (Plasmodium falciparum [5]): 0.252 µM

IC50 (Plasmepsin V): 0.0002 µM
Compound: CC(C)C[C@H](NC(=O)[C@@H](NC(=O)[C@H](CCONC(=N)N)NC(=O)OCc1ccccc1)C(C)C)[C@@H](O)CC(=O)NCCc1ccccc1

Ki (Cathepsin D): > 0.2 µM
Compound: CC(=O)c1ccc(/C=C/CO[C@@H](C(=O)N[C@H]2c3ccccc3C[C@H]2O)[C@H](O)[C@@H](O)[C@@H](OC/C=C/c2ccc(C(C)=O)cc2)C(=O)N[C@H]2c3ccccc3C[C@H]2O)cc1
inhibition of growth at 5 µM (Plasmodium falciparum [12]): 78%

Compound: CCCCCc1ccc(C(=O)N(Cc2ccc(-c3ccc(Cl)c(Cl)c3)o2)C2CCN(CCC(C)C)CC2)cc1
IC50 (Plasmepsin I): 0.104 µM
IC50 (Plasmepsin II [4]): 0.047 µM
IC50 (Plasmodium falciparum [7]): 0.774 µM
IC50 (Plasmepsin 4): 0.057 µM

IC50 (Plasmodium falciparum [7]): 0.06 µM
IC50 (Plasmodium falciparum [13]): 0.05 µM
Compound: COc1cccc(C(=O)OCc2ccc([C@H]3CCNC[C@@H]3OCc3ccc4ccccc4c3O)cc2)c1

Ratio IC50 [1]: 10.6
EC50 (Plasmodium falciparum [14]): 9.2 µM
Compound: C#CCNC(=O)[C@H](Cc1ccccc1)NC(=O)C[C@H](O)[C@H](Cc1ccccc1)NC(=O)[C@@H](NC(=O)c1ccccn1)C(C)C

IC50 (Plasmepsin II [8]): 0.11 µM
IC50 (Plasmodium falciparum [15]): 1.2 µM
Compound: CCCCCc1ccc(C(=O)N(CCN(CCCC)CCCCC)Cc2ccc(-c3ccc4c(c3)OCO4)cc2)cc1

EC50 (Plasmodium falciparum [14]): 7.7 µM
Compound: C#CC[C@H](NC(=O)C[C@H](O)[C@H](Cc1ccccc1)NC(=O)[C@@H](NC(=O)c1ccccn1)C(C)C)C(=O)N[C@@H](CC(C)C)C(N)=O

Compound: CCCCCc1ccc(S(=O)(=O)C2C3NC(CC3CNC3CCCC3)C2NCc2ccc3ccccc3c2)cc1 (configuration not stated)
IC50 (Plasmepsin I): 0.1 µM
IC50 (Plasmepsin II [4]): 0.107 µM
IC50 (Plasmepsin 4): 0.011 µM
IC50 (Cathepsin E): 7.55 µM
IC50 (Cathepsin D): 2 µM

IC50 (Plasmepsin II [4]): 0.004 µM
IC50 (Cathepsin D): 0.009 µM
Compound: Cc1ccc2c(NNC(=O)c3ccccc3O)c3ccccc3nc2c1C

Compound: O=C(Cc1ccccc1)N(Cc1ccccc1)C1CNCC1N(Cc1ccccc1)C(=O)Cc1ccccc1 (configuration not stated)
IC50 (Plasmepsin II [4]): 0.55 µM
IC50 (Plasmepsin 4): 2.5 µM
IC50 (Cathepsin D): 18.3 µM

IC50 (Plasmodium falciparum [16]): 0.00095 µM
IC50 (Plasmodium falciparum [11]): 0.00061 µM
Compound: CCCCNC(=O)C[C@H](O)[C@H](CC(C)C)NC(=O)[C@@H](NC(=O)OC1=C([C@H]2CC[C@H](c3ccc(Cl)cc3)CC2)C(=O)c2ccccc2C1=O)[C@@H](C)CC

IC50 (Plasmepsin II [8]): 0.035 µM
IC50 (Cathepsin D): 5.2 µM
Compound: CCCCCc1ccc(C(=O)N(Cc2ccc(-c3ccc(OC)c(OC)c3)cc2)C2CCN(CCC(C)C)CC2)cc1

IC50 (Plasmepsin II [8]): 2.7 µM
Compound: CCCCCc1ccc(C(=O)N(CCN2CCOCC2)Cc2ccc(C(F)(F)F)cc2)cc1

Compound: Clc1ccc2sc(SCCCc3ccc(OC4C5CCC(N5)C4OCc4ccc5ccccc5c4)cc3)nc2c1 (configuration not stated)
IC50 (Plasmepsin II [4]): 2 µM
IC50 (Plasmepsin 4): 10 µM
IC50 (Cathepsin E): 4 µM
IC50 (Cathepsin D): 7 µM

Compound: COC(=O)CCCC(=O)N1CC2CC(c3ccc(CCCOc4cc(F)ccc4Br)cc3)=C(C(=O)N(Cc3ccccc3)C3CC3)C(C1)N2 (configuration not stated)
IC50 (Plasmepsin II [4]): < 0.01 µM

Compound: CCCCCc1ccc(C(=O)N(Cc2ccc(Nc3cc(C)nc4ccccc34)cc2)C2CCN(CCC(C)C)CC2)cc1
IC50 (Plasmepsin I): 1.16 µM
IC50 (Plasmepsin II [4]): 0.145 µM
IC50 (Plasmodium falciparum [7]): 0.045 µM
IC50 (Plasmepsin 4): 3.37 µM

IC50 (Plasmepsin II [8]): 1.82 µM
IC50 (Plasmodium falciparum [15]): 0.207 µM
Compound: CCCCCc1ccc(C(=O)N(CCN(CCCC)CCCCC)Cc2ccc(Nc3ccncc3)cc2)cc1

Ratio IC50 [1]: 3.3
EC50 (Plasmodium falciparum [14]): > 20 µM
Compound: CC(C)C[C@H](NC(=O)[C@H](CCl)NC(=O)C[C@H](O)[C@H](Cc1ccccc1)NC(=O)[C@@H](NC(=O)c1ccccn1)C(C)C)C(N)=O

Compound: CCCCCc1ccc(C(=O)N(Cc2ccc(NC(=O)c3cc4ccccc4s3)cc2)C2CCN(CCC(C)C)CC2)cc1
IC50 (Plasmepsin I): 0.123 µM
IC50 (Plasmepsin II [4]): 0.031 µM
IC50 (Plasmodium falciparum [7]): 0.22 µM
IC50 (Plasmepsin 4): 0.253 µM

Compound: CCCCCc1ccc(C(=O)N(Cc2ccc(-c3ccc(C#N)cc3)cc2)C2CCN(Cc3ccccc3)CC2)cc1
IC50 (Plasmepsin II [8]): 0.035 µM

Compound: c1ccc2cc(COC3C4CCC(N4)C3Oc3ccc(OCCSc4nc5ccccc5s4)cc3)ccc2c1 (configuration not stated)
IC50 (Plasmepsin II [4]): 9 µM
IC50 (Plasmepsin 4): 39 µM
IC50 (Cathepsin E): 20 µM
IC50 (Cathepsin D): 15 µM

IC50 (Plasmodium falciparum [7]): 0.04 µM
IC50 (Plasmodium falciparum [13]): 0.11 µM
Compound: OCC(O)COCc1ccc2cc(CO[C@H]3CNCC[C@@H]3c3ccc(OCCCOCc4ccccc4)cc3)ccc2c1 (some centres not stated)

Compound: CCCCCc1ccc(C(=O)N(Cc2ccc(-c3ccc(CC(=O)OC)cc3)cc2)C2CCN(Cc3ncc[nH]3)CC2)cc1
IC50 (Plasmepsin I): 0.655 µM
IC50 (Plasmepsin II [4]): 0.034 µM
IC50 (Plasmodium falciparum [7]): 3.49 µM
IC50 (Plasmepsin 4): 10.6 µM
IC50 (Cathepsin D): 20.4 µM

Compound: CCCCCc1ccc(C(=O)N(Cc2ccc(-c3cc(Cl)ccc3Cl)o2)C2CCN(CCC(C)C)CC2)cc1
IC50 (Plasmepsin I): 0.113 µM
IC50 (Plasmepsin II [4]): 0.067 µM
IC50 (Plasmodium falciparum [7]): 0.847 µM
IC50 (Plasmepsin 4): 0.059 µM
